Literature values as cited in article PMC5944417 (Heliyon, 2018).

Tests used:
Conditions in all cases: ref Maes et al., 2007
trypsin = biological target: trypsin
plasmin = biological target: plasmin
cathepsin B = biological target: cathepsin B
porcine kallikrein = tested on: porcine kallikrein
papain = tested on: papain
endoproteinase Lys-C = tested on: endoproteinase Lys-C

**Q.** With `CC(=O)N[C@@H](CC(C)C)C(=O)N[C@@H](CC(C)C)C(=O)N[C@H](C=O)CCCNC(=N)N` [Leupeptin, N-acetyl-L-leucyl-L-leucyl-L-argininal] as the compound, how does the Ki (trypsin) read?
**A.** 3.4 nM

**Q.** And the Ki (plasmin)?
**A.** 3.5 nM

**Q.** What about the Ki (cathepsin B) of the same compound?
**A.** 4.1 nM

**Q.** And the inhibition (porcine kallikrein)?
**A.** inhibited

**Q.** And the inhibition (papain)?
**A.** inhibited

**Q.** And the inhibition (endoproteinase Lys-C)?
**A.** inhibited
